In article PMC10102027, “Helquat dyes targeting G-quadruplexes as a new class of anti-HIV-1 inhibitors” (Scientific Reports, 2023):

Columns and labels:
[1] = tested on: HIV-1 LTR G-quadruplex template (G4 LTR Stop); assay: Taq polymerase stop assay; assay type: biochemical; details: for Fold change, all regions (A, B and C) together: normalized against control
Description: To address specifically the positions in the HIV-1 promoter region that are affected by the binding of G4-stabilizing agents, we performed a Taq polymerase stop assay. The wild-type LTR oligonucleotide was extended at the […] to include a primer-annealing region and used as a template for a single-cycle Taq polymerase reaction. The elongation of the radioactively labelled primer was performed at 45 °C in the presence or absence of the tested compounds and controls.
A Taq polymerase stop assay was carried out as described in a previous study. Briefly, the primer (G4 LTR primer, Supplementary Table S1) was 5′-end labelled with [γ-^32P]ATP using T4 polynucleotide kinase at 37 °C for 30 min. The T4 polynucleotide kinase was then inactivated by incubation at 65 °C for 5 min. The radioactively labelled primer was column-purified and stored at − 20 °C for further use. The labelled primer (1.7 pmol) was annealed to the template (2.1 pmol) in the LiCaco buffer and extended with the Go Taq DNA polymerase (2U/reaction, Promega) at 45 °C for 45 min. Samples were incubated with G-quadruplex-ligands at 45 °C for 45 min before DNA polymerase addition. The reactions were stopped by a denaturing solution (80% formamide, 10% glycerol, 0.025% xylen cyanol, 0.025% bromphenol blue and 10 mM EDTA pH 8); extension products were separated on 15% denaturing gel and visualized by phosphorimaging. The pixel intensity of bands was calculated using 1D gel analysis in ImageQuant TL software version 8.1 (GE HealthCare) after automatic background subtraction by Rolling Ball method.

[2] = tested on: G-quadruplexes in the HIV-1 LTR (G4 LTR FRET oligonucleotide); assay: FRET melting assay; assay type: binding; details: 2 μM compound, 0.2 μM oligonucleotide
[3] = 2.5 µM, pixel intensity normalized against negative control

NCCOc1cc(C(=O)Nc2cc(OCCN)c3ccccc3n2)nc(C(=O)Nc2cc(OCCN)c3ccccc3n2)c1 [PDS, pyridostatin, reference compound]
Fold change, all regions (A, B and C) together ([1]; 1 μM): 2.0 | Fold change, all regions (A, B and C) together ([1]; 2.5 μM): 2.4 | Fold change: A (G-patch 6′) [1, 3]: 2.6 | Fold change: B (G-patch 6) [1, 3]: 2.7 | Fold change: C (G-patch 5) [1, 3]: 1.6 | Tm ([2]; 100 mM KCl, mean and standard error, three experiments): 93 ± 13 °C | ΔTm ([2]; average Tm minus average Tm of PBS): 42 °C
